In US20140315889A1, “HYDROXAMATE DERIVATIVES FOR HDAC INHIBITOR, AND THE PHARMACEUTICAL COMPOSITION COMPRISING THEREOF” (CHONG KUN DANG PHARMACEUTICAL CORP., priority 2011, published 2014):
Like-named read-outs stand apart in the source and are kept apart here.

What was measured:
Human recombinant HDAC1 = molecular target: T1, Human recombinant HDAC1 (Homo sapiens, UniProt Q13547); assay: HDAC enzyme activity test, HDAC1; format: biochemical
T1 construct: purchased Enzo Life Science Co. (named for the kit; assigned to the enzyme from the BML- catalogue prefix) BML-SE456
Method: (§1) Then, 0.3 μg of enzyme and 10 μM of substrate per well were added, reacted at 30° C. for 60 minutes. Thereto, Fluor de Lys® Developer II (BML-KI176) was added and reacted for 30 minutes. […] From the data, the respective IC50 were calculated by GraphPad Prism 4.0 program.

HDAC2 = HDAC2 (Homo sapiens, UniProt Q92769); assay: HDAC enzyme activity test, HDAC2; format: biochemical; details: Table 11, eleven HDAC isozymes; read-out: Inhibition ability (IC50) against HDAC2
Method: as §1

HDAC3 = HDAC3 (Homo sapiens, UniProt O15379); assay: HDAC enzyme activity test, HDAC3; format: biochemical; details: Table 11, eleven HDAC isozymes; read-out: Inhibition ability (IC50) against HDAC3
Method: as §1

HDAC4 = HDAC4 (Homo sapiens, UniProt P56524); assay: HDAC enzyme activity test, HDAC4; format: biochemical; details: Table 11, eleven HDAC isozymes; read-out: Inhibition ability (IC50) against HDAC4
Method: as §1

HDAC5 = HDAC5 (Homo sapiens, UniProt Q9UQL6); assay: HDAC enzyme activity test, HDAC5; format: biochemical; details: Table 11, eleven HDAC isozymes; read-out: Inhibition ability (IC50) against HDAC5
Method: as §1

HDAC8 = molecular target: T2, HDAC8 (Homo sapiens, UniProt Q9BY41); assay: HDAC enzyme activity test, HDAC8; format: biochemical; details: Table 11, eleven HDAC isozymes; read-out: Inhibition ability (IC50) against HDAC8
T2 sequence (Q9BY41 1-377): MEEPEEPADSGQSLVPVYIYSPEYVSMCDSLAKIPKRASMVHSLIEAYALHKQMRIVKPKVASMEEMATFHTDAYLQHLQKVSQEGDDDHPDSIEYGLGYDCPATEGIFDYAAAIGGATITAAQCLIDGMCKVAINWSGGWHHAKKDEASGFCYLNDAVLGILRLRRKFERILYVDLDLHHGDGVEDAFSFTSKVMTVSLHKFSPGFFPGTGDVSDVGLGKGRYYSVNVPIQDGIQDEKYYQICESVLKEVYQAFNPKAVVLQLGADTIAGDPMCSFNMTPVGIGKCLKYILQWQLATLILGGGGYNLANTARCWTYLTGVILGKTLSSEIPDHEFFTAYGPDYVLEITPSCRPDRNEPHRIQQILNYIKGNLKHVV
Method: as §1

HDAC10 = molecular target: T3, HDAC10 (Homo sapiens, UniProt Q969S8); assay: HDAC enzyme activity test, HDAC10; format: biochemical; details: Table 11, eleven HDAC isozymes; read-out: Inhibition ability (IC50) against HDAC10
T3 sequence (Q969S8 1-669): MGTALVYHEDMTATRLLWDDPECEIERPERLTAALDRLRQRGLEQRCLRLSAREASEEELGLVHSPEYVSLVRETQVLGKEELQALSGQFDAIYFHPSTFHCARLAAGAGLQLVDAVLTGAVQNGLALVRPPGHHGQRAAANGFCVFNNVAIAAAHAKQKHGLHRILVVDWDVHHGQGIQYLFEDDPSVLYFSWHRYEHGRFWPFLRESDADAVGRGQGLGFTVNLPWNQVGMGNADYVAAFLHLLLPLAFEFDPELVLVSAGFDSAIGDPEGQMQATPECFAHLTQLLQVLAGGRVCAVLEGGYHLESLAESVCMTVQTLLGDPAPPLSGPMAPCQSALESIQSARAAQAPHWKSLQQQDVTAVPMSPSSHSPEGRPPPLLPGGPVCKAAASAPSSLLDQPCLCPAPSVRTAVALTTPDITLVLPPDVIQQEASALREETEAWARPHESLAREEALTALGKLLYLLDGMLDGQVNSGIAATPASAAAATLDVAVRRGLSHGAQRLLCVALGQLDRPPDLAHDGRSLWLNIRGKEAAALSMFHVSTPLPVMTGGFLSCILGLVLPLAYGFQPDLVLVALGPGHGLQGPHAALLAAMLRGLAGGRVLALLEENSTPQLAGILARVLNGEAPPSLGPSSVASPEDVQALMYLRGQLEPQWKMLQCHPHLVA
Method: as §1

[1] = system: collagen-induced arthritis model; assay: Effectiveness of compound 87 in a collagen-induced arthritis model; format: in vivo, DBA1J mice; details: for clinical score decreased, compared with the positive control group: vs ITF2357 50 mg/kg group
Description: 7-week aged male DBA1J mice were used in the experiment. The animal facility was kept at constant temperature and constant humidity with a 12-hr dark/12-hr light cycle, and the animals were allowed to access food and water ad libitum. The animals were acclimated to the cage for 7 days.
Each arthritis-onset animals were selected and then promptly used in the experiments. The experimental animal groups consist of: • A. two vehicle-control groups administered with only vehicle via s.c. (subcutaneous injection) and p.o. (per oral), • B. a positive control group administered with ITF2357 of 50 mg/kg, and • C. two compound test groups administered with compound 87 in each doses of 10 and 50 mg/kg.
A solution of ITF2357 for administration was prepared using 0.5% methylcellulose as a vehicle. It was administered orally to the animals in a volume of 10 ml/kg once a day for 7 days. A solution of compound 87 for administration was prepared using DMSO as a vehicle just before administration. It was administered in a volume of 2 ml/kg via s.c. once a day for 7 days. Two vehicle-control groups were administered with only vehicle once a day for 7 days via s.c. and p.o. separately.
Bovine type 2 collagen (Chondrex) and complete Freund's adjuvant (Chondrex) are mixed in 1:1 to become an emulsion. Each 0.1 ml of the obtained emulsion was injected to the tail of each mouse intradermally. After 21 days, Bovine type 2 collagen (Chondrex) and incomplete Freund's adjuvant (Chondrex) are mixed in 1:1 to become an emulsion. Each 0.1 ml of the obtained emulsion was injected to the hips of each mouse intradermally for boosting. After boosting, feet of the mice were observed once a day. When clinical score was occurred, the drug administration and its evaluation were started. The criterion of clinical score was according to Experimental Example 3.
All the results were expressed as mean±SEM, and each test group and the control groups (vehicle-control group or positive control group) were compared using one-way ANOVA test (Dunnett's test, p<0.001) with GrapicPad Prism 5.0 program.

[2] = Table 11, eleven HDAC isozymes, read-out: Inhibition ability (IC50) against HDAC1
[3] = Table 12, read-out: Inhibition ability (IC50) HDAC1

Chain of HDAC5 (Q9UQL6 whole entry, species assumed): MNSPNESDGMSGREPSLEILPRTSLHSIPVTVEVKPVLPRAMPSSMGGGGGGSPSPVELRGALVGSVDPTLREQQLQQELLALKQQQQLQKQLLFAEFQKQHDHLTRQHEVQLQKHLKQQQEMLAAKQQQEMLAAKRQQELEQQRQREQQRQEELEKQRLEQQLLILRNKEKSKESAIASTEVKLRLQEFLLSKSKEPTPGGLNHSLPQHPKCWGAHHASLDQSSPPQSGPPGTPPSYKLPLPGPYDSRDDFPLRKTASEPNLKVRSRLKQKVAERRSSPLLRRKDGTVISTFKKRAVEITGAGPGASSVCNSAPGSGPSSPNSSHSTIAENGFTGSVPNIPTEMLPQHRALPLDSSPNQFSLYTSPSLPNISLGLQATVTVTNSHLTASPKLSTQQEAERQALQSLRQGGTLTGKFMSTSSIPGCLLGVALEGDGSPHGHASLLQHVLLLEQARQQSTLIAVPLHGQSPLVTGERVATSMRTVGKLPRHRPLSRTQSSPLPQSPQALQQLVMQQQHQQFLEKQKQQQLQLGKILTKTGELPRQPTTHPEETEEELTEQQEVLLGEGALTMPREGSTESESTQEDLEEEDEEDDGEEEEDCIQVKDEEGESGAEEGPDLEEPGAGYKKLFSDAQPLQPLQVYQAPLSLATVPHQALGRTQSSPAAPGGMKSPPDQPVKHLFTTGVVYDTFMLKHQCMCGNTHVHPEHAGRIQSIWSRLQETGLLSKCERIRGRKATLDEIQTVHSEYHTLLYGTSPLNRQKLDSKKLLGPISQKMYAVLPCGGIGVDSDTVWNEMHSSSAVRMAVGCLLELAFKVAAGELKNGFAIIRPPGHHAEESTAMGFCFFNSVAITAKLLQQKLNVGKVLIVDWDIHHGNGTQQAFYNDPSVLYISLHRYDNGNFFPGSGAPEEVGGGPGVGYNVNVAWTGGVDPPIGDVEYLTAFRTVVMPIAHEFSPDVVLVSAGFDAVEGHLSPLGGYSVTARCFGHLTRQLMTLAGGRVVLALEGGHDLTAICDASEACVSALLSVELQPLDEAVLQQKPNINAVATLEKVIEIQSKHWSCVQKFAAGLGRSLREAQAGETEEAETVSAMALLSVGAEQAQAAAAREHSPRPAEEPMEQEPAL
Chain of HDAC4 (P56524 whole entry, species assumed): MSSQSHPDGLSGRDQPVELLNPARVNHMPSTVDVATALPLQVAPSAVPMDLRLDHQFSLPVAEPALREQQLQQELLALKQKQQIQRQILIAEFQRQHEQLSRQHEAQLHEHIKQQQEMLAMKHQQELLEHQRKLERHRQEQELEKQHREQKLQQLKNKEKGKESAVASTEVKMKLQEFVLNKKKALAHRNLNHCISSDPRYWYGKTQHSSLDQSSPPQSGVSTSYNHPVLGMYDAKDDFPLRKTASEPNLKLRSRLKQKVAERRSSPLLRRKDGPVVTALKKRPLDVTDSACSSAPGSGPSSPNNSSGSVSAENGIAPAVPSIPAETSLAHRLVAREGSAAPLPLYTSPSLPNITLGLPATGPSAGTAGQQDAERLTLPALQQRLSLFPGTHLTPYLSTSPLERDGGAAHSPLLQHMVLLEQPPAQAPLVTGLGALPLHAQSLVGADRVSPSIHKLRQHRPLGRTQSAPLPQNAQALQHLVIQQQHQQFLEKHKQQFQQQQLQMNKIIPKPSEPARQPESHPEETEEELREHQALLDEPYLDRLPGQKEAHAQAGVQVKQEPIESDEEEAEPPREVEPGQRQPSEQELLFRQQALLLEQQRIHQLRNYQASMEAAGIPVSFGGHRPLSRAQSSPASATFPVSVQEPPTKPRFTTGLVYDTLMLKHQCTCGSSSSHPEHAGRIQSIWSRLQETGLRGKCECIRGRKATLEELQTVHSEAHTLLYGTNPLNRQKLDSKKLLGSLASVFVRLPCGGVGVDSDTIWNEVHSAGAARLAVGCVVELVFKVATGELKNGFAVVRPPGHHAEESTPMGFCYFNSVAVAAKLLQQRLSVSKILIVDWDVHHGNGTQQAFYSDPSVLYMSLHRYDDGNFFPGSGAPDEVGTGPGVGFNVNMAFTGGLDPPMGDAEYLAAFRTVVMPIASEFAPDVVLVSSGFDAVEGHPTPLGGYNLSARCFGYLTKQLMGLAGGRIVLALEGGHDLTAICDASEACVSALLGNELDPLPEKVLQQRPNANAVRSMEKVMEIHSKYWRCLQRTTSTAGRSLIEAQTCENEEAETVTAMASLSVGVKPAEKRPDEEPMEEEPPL
T1 sequence (Q13547 whole entry): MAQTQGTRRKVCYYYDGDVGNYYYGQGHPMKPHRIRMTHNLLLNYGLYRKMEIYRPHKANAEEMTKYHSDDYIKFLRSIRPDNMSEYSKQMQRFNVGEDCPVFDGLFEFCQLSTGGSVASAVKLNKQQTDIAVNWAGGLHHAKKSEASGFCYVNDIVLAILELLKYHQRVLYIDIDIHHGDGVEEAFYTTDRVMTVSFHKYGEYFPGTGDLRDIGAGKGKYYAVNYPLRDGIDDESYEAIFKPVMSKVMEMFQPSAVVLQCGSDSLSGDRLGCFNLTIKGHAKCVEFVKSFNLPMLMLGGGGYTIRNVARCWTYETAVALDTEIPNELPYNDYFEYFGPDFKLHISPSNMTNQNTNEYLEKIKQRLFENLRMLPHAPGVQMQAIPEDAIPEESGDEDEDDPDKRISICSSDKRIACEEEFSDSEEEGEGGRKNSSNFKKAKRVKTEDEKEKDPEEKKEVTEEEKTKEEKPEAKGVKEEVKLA
Chain of HDAC3 (O15379 whole entry, species assumed): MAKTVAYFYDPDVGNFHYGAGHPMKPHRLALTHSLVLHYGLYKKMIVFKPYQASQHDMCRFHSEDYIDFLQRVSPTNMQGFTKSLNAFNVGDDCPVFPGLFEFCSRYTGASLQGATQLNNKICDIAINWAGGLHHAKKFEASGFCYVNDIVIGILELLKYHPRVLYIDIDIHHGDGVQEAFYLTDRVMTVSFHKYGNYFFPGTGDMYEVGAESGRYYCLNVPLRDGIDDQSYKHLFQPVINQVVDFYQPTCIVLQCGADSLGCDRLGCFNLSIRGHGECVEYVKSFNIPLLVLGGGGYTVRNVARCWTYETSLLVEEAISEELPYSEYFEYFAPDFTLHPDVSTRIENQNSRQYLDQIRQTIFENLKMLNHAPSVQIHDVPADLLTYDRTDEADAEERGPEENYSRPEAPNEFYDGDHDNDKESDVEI
Chain of HDAC3 (Q9Y618 395-489 partner limits assumed, species assumed): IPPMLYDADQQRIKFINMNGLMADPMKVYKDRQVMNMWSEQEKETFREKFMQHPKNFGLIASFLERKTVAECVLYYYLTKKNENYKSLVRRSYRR
Chain of HDAC2 (Q92769 whole entry, species assumed): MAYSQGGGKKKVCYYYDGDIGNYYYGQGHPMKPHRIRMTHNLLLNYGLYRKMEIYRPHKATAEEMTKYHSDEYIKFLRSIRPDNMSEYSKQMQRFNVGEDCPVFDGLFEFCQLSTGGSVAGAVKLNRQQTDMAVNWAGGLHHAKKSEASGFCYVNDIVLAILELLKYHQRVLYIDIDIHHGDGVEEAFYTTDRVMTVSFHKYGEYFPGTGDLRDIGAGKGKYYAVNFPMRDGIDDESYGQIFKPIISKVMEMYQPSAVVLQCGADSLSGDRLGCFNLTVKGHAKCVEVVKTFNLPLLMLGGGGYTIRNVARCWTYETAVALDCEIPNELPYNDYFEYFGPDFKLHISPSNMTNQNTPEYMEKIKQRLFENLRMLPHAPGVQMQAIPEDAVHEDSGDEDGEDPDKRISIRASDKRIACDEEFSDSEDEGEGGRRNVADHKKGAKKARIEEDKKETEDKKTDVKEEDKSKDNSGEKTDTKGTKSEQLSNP

SMILES | IC50 (Human recombinant HDAC1; [2]) | IC50 (HDAC2) | IC50 (HDAC3) | IC50 (HDAC4) | IC50 (HDAC5) | IC50 (HDAC8) | IC50 (HDAC10) | IC50 (Human recombinant HDAC1; [3]) | IC50 (Human recombinant HDAC1; data of Table 11, read-out: IC50 against HDAC1) | clinical score decreased, compared with the positive control group ([1]; 10 mg/kg s.c. once a day for 7 days) | clinical score decreased, compared with the positive control group ([1]; 50 mpk s.c. once a day for 7 days) | body-weight loss ([1]; collagen-induced arthritis mice, 10 and 50 mg/kg s.c.)
CN1CCN(C(=O)N(CCCCCCC(=O)NO)c2ccc(-c3ccc4cnn(C)c4c3)cc2)CC1 [CKD-581, reference compound] | 0.000673 µM | 1.58 nM | 0.693 nM | 1680 nM | 0.00109 µM | 86.1 nM | 0.00266 µM |  |  |  |  | 
O=C(NO)c1ccc(Cn2c3c(c4ccccc42)C(=O)C(CN2CCOCC2)CC3)cc1 (stereo not drawn) [Compound 87, N-hydroxy-4-((3-(morpholinomethyl)-4-oxo-1,2,3,4-tetrahydrocarbazol-9-yl)methyl)benzamide] |  |  |  | 934 nM | 5.08 µM | 1280 nM | 15.3 µM | 3.07 µM | 11.2 µM | 44% | 68% | no observation of body-weight loss
CN1CCN(CC2CCc3c(c4cc(F)ccc4n3Cc3ccc(C(=O)NO)cc3)C2=O)CC1 (stereo not drawn) [Compound 142, 4-((6-fluoro-3-((4-methylpiperazin-1-yl)methyl)-4-oxo-1,2,3,4-tetrahydrocarbazol-9-yl)methyl)-N-hydroxybenzamide] | 12.2 µM |  |  | 2210 nM | 4.27 µM | 1060 nM | 37 µM | 2.65 µM |  |  |  | 
CC1(C)CC(=O)c2c(C(F)(F)F)nn(Cc3ccc(C(=O)NO)cc3)c2C1 [Compound 237, 4-((6,6-dimethyl-4-oxo-3-(trifluoromethyl)-4,5,6,7-tetrahydro-1H-indazol-1-yl)methyl)-N-hydroxybenzamide] |  |  |  | 4990 nM | 16 µM | 3930 nM | 76.1 µM | 3.91 µM |  |  |  | 
O=C(NO)c1ccc(Cn2c3c(c4ccccc42)C(=O)N(CCN2CCOCC2)CC3)cc1 [Compound 249, N-hydroxy-4-((2-(2-morpholinoethyl)-1-oxo-1,2,3,4-tetrahydropyrido[4,3-b]indol-5-yl)methyl)benzamide] | 8.47 µM |  |  | 255 nM | 4.62 µM | 220 nM | 53 µM | 3.46 µM |  |  |  | 
